Measurements as given in ChEMBL document CHEMBL4651402, “Screening of ~5500 FDA-approved drugs and clinical candidates for anti-SARS-CoV-2 activity” (2021).
pIC50: −log10 of the molar value.

System: SARS-CoV-2
Assay: microbe, parasite or virus in culture
Details: Severe acute respiratory syndrome coronavirus 2, Vero C1008, 48 h; for IC50: read-out: pIC50 (converted)

Structure (SMILES) | pIC50 | IC50 [µM]
CC[C@]1(O)C[C@@H]2CN(CCc3c([nH]c4ccccc34)[C@@](C(=O)OC)(c3cc4c(cc3OC)N(C)[C@H]3[C@@](O)(C(N)=O)[C@H](O)[C@]5(CC)C=CCN6CC[C@]43[C@@H]65)C2)C1 [VINDESINE] | < 4.70 | > 20
Cc1cccc(NC(=O)N[C@@H]2N=C(c3ccccc3)c3ccccc3N(C)C2=O)c1 [L-365260] | < 4.70 | > 20
Cc1cc(=O)oc2cc(O)c(O)cc12 [4-METHYLESCULETIN] | < 4.70 | > 20
C/C=C/CC(C)C(O)C1C(=O)NC(CC)C(=O)N(C)CC(=O)N(C)C(C(C)CC)C(=O)NC(C(C)C)C(=O)N(C)C(CC(C)C)C(=O)NC(C)C(=O)NC(C)C(=O)N(C)C(CC(C)C)C(=O)N(C)C(CC(C)C)C(=O)N(C)C(C(C)C)C(=O)N1C (stereo not drawn) | < 4.70 | > 20
CC1(O)/C=C\C=C(\CO)C2CC(C)(C)C2(O)CC1 (stereo not drawn) | < 4.70 | > 20
CN(C)CCO/N=C(/C=C/c1ccc(O)cc1)c1ccccc1F [EPLIVANSERIN] | < 4.70 | > 20
CCC(O)(COC(N)=O)c1ccccc1 (stereo not drawn) [HYDROXYPHENAMATE] | < 4.70 | > 20
O=C1C(CC[S+]([O-])c2ccccc2)C(=O)N(c2ccccc2)N1c1ccccc1 (stereo not drawn) [SULFINPYRAZONE] | < 4.70 | > 20
CSc1ccc2c(c1)C(N1CCN(C)CC1)Cc1ccccc1S2 (stereo not drawn) [METITEPINE] | < 4.70 | > 20
COC1=CC(=O)C[C@@H](C)[C@]12Oc1c(Cl)c(OC)cc(OC)c1C2=O [GRISEOFULVIN] | < 4.70 | > 20
COCCOCCOCCOCCOC(=O)OC[n+]1ccc(N/C(=N/CCCCCCOc2ccc(Cl)cc2)NC#N)cc1 | < 4.70 | > 20
COc1ccc(CCNCCC(=O)N2CCCSc3ccccc32)cc1OC | < 4.70 | > 20
CCOc1ccc(NC(=S)Nc2ccc(OCC)cc2)cc1 [ETOCARLIDE] | < 4.70 | > 20
Cn1cc([S+](C)[O-])c(=O)c2ccc(F)cc21 (stereo not drawn) [FLOSEQUINAN] | < 4.70 | > 20
O[C@H]1[C@H](O)[C@@H](O)[C@H](O)[C@@H](O)[C@H]1O [INOSITOL] | < 4.70 | > 20
O=C(O)CP(=O)(O)O [FOSFONET] | < 4.70 | > 20
Cc1c(Cl)cccc1Nc1ccccc1C(=O)O [TOLFENAMIC ACID] | < 4.70 | > 20
CN1C(=O)CC2(CCN(CCCC(=O)c3ccc(F)cc3)CC2)C1=O [ROXOPERONE] | < 4.70 | > 20
CCN(CC)CCOCCOC(=O)C(CC)(CC)c1ccccc1 [OXELADIN] | < 4.70 | > 20
Nc1nc(N)nc(-c2cc(Cl)ccc2Cl)n1 [IRSOGLADINE] | < 4.70 | > 20

Structure (SMILES) | pIC50 | IC50 [µM]
Nc1ccncc1N [AMIFAMPRIDINE] | < 4.70 | > 20
CN/C(=N\CCSCc1nc[nH]c1C)NC#N [CIMETIDINE] | < 4.70 | > 20
CC1(C)OC2CC3C4CC(F)C5=CC(=O)C=CC5(C)C4(Cl)C(Cl)CC3(C)C2(C(=O)CCl)O1 (stereo not drawn) | < 4.70 | > 20
CC(=O)SCC(Cc1ccccc1)C(=O)NCC(=O)OCc1ccccc1 (stereo not drawn) [RACECADOTRIL] | < 4.70 | > 20
CCOc1ccc2ccccc2c1C(=O)N[C@@H]1C(=O)N2[C@@H]1SC(C)(C)[C@@H]2C(=O)O [NAFCILLIN] | < 4.70 | > 20
O=C(O)c1ccc(OCCn2ccnc2)cc1 [DAZOXIBEN] | < 4.70 | > 20
CC(C)[C@H](N)C(=O)O[C@@H]1C[C@@H](n2ccc(N)nc2=O)O[C@H]1CO [VALTORCITABINE] | < 4.70 | > 20
CN1CCN(c2c(F)cc3c(=O)c(C(=O)O)cn(CCF)c3c2F)CC1 [FLEROXACIN] | < 4.70 | > 20
Cn1c(=O)c2c(ncn2CCO)n(C)c1=O [ETOFYLLINE] | < 4.70 | > 20
CCOC(=O)C1=C(C)NC(C)=C(C(=O)OC)C1c1cccc(Cl)c1Cl (stereo not drawn) [FELODIPINE] | < 4.70 | > 20
CC[C@H]1OC(=O)[C@H](C)[C@@H](O[C@H]2C[C@@](C)(OC)[C@@H](O)[C@H](C)O2)[C@H](C)[C@@H](O[C@@H]2O[C@H](C)C[C@H](N(C)C)[C@H]2O)[C@](C)(O)C[C@@H](C)[C@@H]2N[C@@H](COCCOC)O[C@H]([C@H]2C)[C@]1(C)O [DIRITHROMYCIN] | < 4.70 | > 20
O=C(O)COc1ccc(CCNS(=O)(=O)c2ccccc2)cc1 [SULOTROBAN] | < 4.70 | > 20
CN1C2CCC1CC(OC1c3ccccc3CCc3ccccc31)C2 (stereo not drawn) | < 4.70 | > 20
CC1CNc2c(cccc2S(=O)(=O)N[C@@H](CCCNC(=N)N)C(=O)N2CC[C@H](C)C[C@@H]2C(=O)O)C1 (stereo partly drawn) | < 4.70 | > 20
CN(C)[C@@H]1C(O)=C(C(N)=O)C(=O)[C@@]2(O)C(O)=C3C(=O)c4c(O)cccc4[C@@](C)(O)[C@H]3[C@H](O)[C@@H]12 [OXYTETRACYCLINE] | < 4.70 | > 20
CC(C)(O/N=C(/C(=O)NC1C(=O)N2C(C(=O)O)=C(C[n+]3ccccc3)CSC12)c1csc(N)n1)C(=O)O (stereo not drawn) | < 4.70 | > 20
CCCCN(CCCC)CCCOc1c(C)cc(C(=O)c2cc(=O)c3ccccc3o2)cc1C [BUCROMARONE] | < 4.70 | > 20
CCN1C[C@]2(C)CC[C@H](O)[C@@]34[C@@H]5C[C@H]6[C@H](O)[C@@H]5[C@](O)(C[C@@H]6OC)[C@@H](C[C@H]23)[C@H]14 | < 4.70 | > 20
O=C1c2c(O)ccc(O)c2C(=O)c2c(NCCNCCO)ccc(NCCNCCO)c21 [MITOXANTRONE] | < 4.70 | > 20
c1cncc(C2=NCCC2)c1 [MYOSMINE] | < 4.70 | > 20

Structure (SMILES) | pIC50 | IC50 [µM]
O=c1cc(-c2ccccc2)oc2ccccc12 [FLAVONE] | < 4.70 | > 20
O=S(=O)(O)c1cc(O)ccc1O [CALCIUM DOBESILATE] | < 4.70 | > 20
CN1CCC2=C(C1)C(c1ccccc1)c1ccccc12 (stereo not drawn) [PHENINDAMINE] | < 4.70 | > 20
CCN(CC)CCN1C(=O)CN=C(c2ccccc2F)c2cc(Cl)ccc21 [FLURAZEPAM] | < 4.70 | > 20
Cc1nc(NC(=O)N2CCC[C@H]2C(N)=O)sc1-c1ccnc(C(C)(C)C(F)(F)F)c1 [ALPELISIB] | < 4.70 | > 20
CC(N)Cc1ccc(O)cc1 (stereo not drawn) [HYDROXYAMPHETAMINE] | < 4.70 | > 20
CC(C)=CCC/C(C)=C/CC1=C(C)C(=O)c2ccccc2C1=O [MENAQUINONE-2] | < 4.70 | > 20
Nc1ccccc1NC(=O)c1ccc(CNC(=O)OCc2cccnc2)cc1 [ENTINOSTAT] | < 4.70 | > 20
C[C@H](NC(=O)Cn1nnc2ccccc2c1=O)c1ccc(OC(F)(F)F)cc1 [ZELATRIAZIN] | < 4.70 | > 20
Cc1ccnc2c1NC(=O)c1cccnc1N2C1CC1 [NEVIRAPINE] | < 4.70 | > 20
CO[C@H]1/C=C\O[C@@]2(C)Oc3c(C)c(O)c4c(O)c(c(/C=N/N5CCN(C6CCCC6)CC5)c(O)c4c3C2=O)NC(=O)/C(C)=C\C=C/[C@H](C)[C@H](O)[C@@H](C)[C@@H](O)[C@@H](C)[C@H](OC(C)=O)[C@@H]1C | < 4.70 | > 20
NC(N)=Nc1nc(CSCC/C(N)=N/S(N)(=O)=O)cs1 [FAMOTIDINE] | < 4.70 | > 20
C=C1C(=O)O[C@@H]2[C@H]3O[C@]3(C)CC/C=C(\C)CC[C@@H]12 | < 4.70 | > 20
[O-][N+]1=C(c2ccccc2)c2cc(Cl)ccc2N=C(NCC2CC2)C1 [CYPRAZEPAM] | < 4.70 | > 20
Cc1c(C)c2ccc(OCCCN3CCN(Cc4ccc(Cl)cc4)CC3)cc2oc1=O | < 4.70 | > 20
CNC(=O)c1cc(Oc2ccc(NC(=O)Nc3cc(C(C)(C)C)nn3-c3ccc4ncccc4c3)c(F)c2)ccn1 [REBASTINIB] | < 4.70 | > 20
NC(=O)CC[C@H](N)C(=O)O [GLUTAMINE] | < 4.70 | > 20
CCc1nc(N)nc(N)c1-c1ccc(Cl)cc1 [PYRIMETHAMINE] | < 4.70 | > 20
COCc1c(C(C)C)nc(C(C)C)c(/C=C/[C@@H](O)C[C@@H](O)CC(=O)O)c1-c1ccc(F)cc1 [CERIVASTATIN] | < 4.70 | > 20
